Holding throughout (format): cell-based, human
For test [1], the system named is overall methylation of DNA. As to the kind of experiment: Overall methylation of DNA with antibody against 5-methyl-cytosine. Conditions: A549, 5 μM, 48 hr exposure. The method, then:
(§1) DNMT1 protein expression was measured by Western Blotting after exposure to RX-3117 for 24 or 48 hr. DNMT1 RNA expression was measured by real-time PCR after 24 and 48 hr exposure to RX-3117. DNMT enzyme activity was measured in isolated nuclei after exposure 1 μM RX-3117 or 5 μM aza-CdR using a DNA methyltransferase assay kit provided by EpiGentek using the ability of a CpG dinding domain to bind to methylated DNA. In A549 cells the effect of 5 μM RX-3117 on overall methylation was measured with a specific antibody against 5-methyl-cytosine. Bands on Western blots were visualized using appropriate InfraRedDye using an Odyssey InfraRed imager.

The test system of test [2] is DNMT1. As to the kind of experiment: DNMT enzyme activity in isolated nuclei (DNA methyltransferase assay kit). Conditions: A2780 nuclear extracts, 5 μM, 24 hr. The method, then: as §1
Test [3] concerns PCFT. As to the kind of experiment: PCFT mediated transport of radiolabeled MTX. The note with it: CEM cells, 24 hr; RX-3117 29.6 μM; DAC positive control. The text has this:
In this study, the following cell lines were used: (1) CCRF-CEM cells and its MTX resistant variant CEM-MTX, characterized by a deficiency of the reduced folate carrier (RFC) (Jansen G., et al., JBC 273 (1998) 30189-30198). The PCFT gene in CEM cells is highly methylated. (Gonen N., et al., BBRC 376 (2008) 787-92.); (2) CEM cells cultured in RPMI medium with 10% fetal bovine serum (FBS); and (3) A549 and SW1573 non-small cell lung cancer (NSCLC) and A2780 ovarian cancer cell lines cultured in DMEM medium with 10% FBS.
MTX transport was measured using radiolabeled MTX in CEM wild type and CEM-MTX cell lines. CEM cells have a high RFC activity. CEM-MTX are completely deficient in RFC-mediated transport. CEM cells have a highly methylated PCFT transporter and a very low PCFT mediated transport (Gonen N., et al., BBRC 376 (2008) 787-92). MTX transport at pH 7.4 is predominantly RFC mediated and less than 2% by PCFT. Folic acid was used to inhibit PCFT mediated transport. […] CEM and CEM-MTX cells were exposed to 29.6 μM RX-3117 and to 0, 19 μM aza-CdR as a positive control. MTX transport was measured after 24 hr to the drugs in a 3 minutes uptake assay using 2 μM [3′,5,′7-3H]-MTX.

SMILES strings stand for the structures.

The results in this text go back to US10278971B2, “Fluorocyclopentenylcytosine methods of use” (Rexahn Pharmaceuticals, Inc., priority 2015, dated 2019).

As for `Nc1ncn([C@H]2C[C@H](O)[C@@H](CO)O2)c(=O)n1` [DAC, 5-aza-2′-deoxycytidine, reference compound], the “decrease of overall methylation of DNA” value in test [1] was found to be 9%. In test [2], the “inhibition of DNMT1 activity” value was determined as 31%. In addition, the “increase of PCFT mediated transport of MTX” value in test [3] turned out to be 4 fold.
